Results taken from article PMC3759900, “Acetylcholinesterase Reactivators (HI-6, Obidoxime, Trimedoxime, K027, K075, K127, K203, K282): Structural Evaluation of Human Serum Albumin Binding and Absorption Kinetics” (International Journal of Molecular Sciences, 2013).

Assays:
[1] = Pharmacokinetic study, plasma concentration after i.m. injection (HPLC); settings: male Wister rats, description of plasma kinetic curves
[2] = molecular target: Human Serum Albumin (HSA) (Homo sapiens, UniProt P02768); assay: HSA binding by ultrafiltration (Centrifree) and HPLC; settings: HSA 45 g/L in phosphate buffer saline, 90 min at 37 °C, mean of three independent measurements
Chain of Human Serum Albumin (HSA) (P02768 25-609): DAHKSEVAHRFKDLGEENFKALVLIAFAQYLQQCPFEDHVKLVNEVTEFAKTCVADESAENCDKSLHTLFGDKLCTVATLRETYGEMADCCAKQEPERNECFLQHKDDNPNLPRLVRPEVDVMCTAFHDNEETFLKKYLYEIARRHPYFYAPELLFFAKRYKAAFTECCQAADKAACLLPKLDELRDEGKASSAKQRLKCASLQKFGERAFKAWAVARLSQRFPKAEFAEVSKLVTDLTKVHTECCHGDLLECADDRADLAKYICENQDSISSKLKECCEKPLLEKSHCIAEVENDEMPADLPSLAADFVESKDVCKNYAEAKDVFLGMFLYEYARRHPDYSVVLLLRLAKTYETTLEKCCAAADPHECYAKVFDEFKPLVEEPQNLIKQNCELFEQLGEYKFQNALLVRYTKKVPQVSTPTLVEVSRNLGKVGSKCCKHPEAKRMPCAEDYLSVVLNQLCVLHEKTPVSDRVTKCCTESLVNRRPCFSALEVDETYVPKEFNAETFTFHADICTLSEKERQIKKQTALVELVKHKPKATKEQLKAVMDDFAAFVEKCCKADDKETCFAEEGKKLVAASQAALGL

SMILES | Elimination from blood (kinetic curve profile) [1] | Binding to Human Serum Albumin (HSA) [2]
NC(=O)c1cc[n+](COC[n+]2ccccc2/C=N/O)cc1 [HI-6] | slow elimination from the blood | 1%
NC(=O)c1cc[n+](C/C=C/C[n+]2ccc(/C=N/O)cc2)cc1 [K203] |  | 15%
O/N=C/c1cc[n+](C/C=C/C[n+]2ccc(/C=N/O)cc2)cc1 [K075] |  | 10%
NC(=O)c1cc[n+](CCOCC[n+]2ccc(C=NO)cc2)cc1 [K127] |  | 4%
O/N=C/c1cc[n+](CCC[n+]2ccc(/C=N/O)cc2)cc1 [Trimedoxime, trimedoxime] | slow elimination from the blood | 6%
ON=Cc1cc[n+](C/C=C\C[n+]2ccc(C=NO)cc2)cc1 [K282] |  | 12%
NC(=O)c1cc[n+](CCC[n+]2ccc(/C=N/O)cc2)cc1 [K027] |  | 5%
O/N=C/c1cc[n+](COC[n+]2ccc(/C=N/O)cc2)cc1 [Obidoxime, obidoxime] | relatively fast elimination | 
